Key:
[1] = tested on: MKN-45 (human stomach cancer cells); assay: Cell-growth inhibitory activity against MKN-45 (WST-8 method); type: cell-based; settings: 72 h, MKN-45 cells, 3 days incubation, read-out: 50% tumor growth inhibiting activity (IC50)
Procedure: Method for Determining the Effects of the Agent on Cells
Fetal calf serum (FCS) was obtained from Molgate and the DMEM culture medium from Asahi Technoglass Inc.
Human gastric cancer cell MKN-45 was obtained from the IBL Co., Ltd.
The cells were suspended in 10% FCS-DMEM medium and the suspension was distributed in a 96-well plastic plate in the amount of 1000 cells/50 microliter/well. The plate was incubated at 37° C. in 5% CO2-95% air overnight. Each drug was dissolved in dimethylsulfoxide or a suitable solvent by serial dilution and distributed in the wells at 50 microliters per well in which the cells had been added. The plate was incubated at 37° C. in 5% CO2-95% air for 3 days. The growth of the cultured cells was measured by the WST-8 method (H. Tominaga et al., Anal. Commun., 36, 47-50 (1999)). In the WST-8 method, 10 microliter of WST-8 reagent solution was added, and then incubated at 37° C. for 1 to 6 hours. After stirring the plate, the resulting formazan was quantitatively analyzed by colorimetry to determine the inhibition rate of the drug. Thus, 50% inhibitory concentration (IC50) for the growth was determined for each compound.

[2] = tested on: Human lung cancer cells LX-1; assay: Anti-tumor effect on LX-1 solid tumor transplanted subcutaneously in nude mice; type: in vivo, nude mice (Balb/c-nu/nu); settings: LX-1 in nude mice
Excerpt: Method for Determining the Effects of the Agent on Animals
Female nude mice of 5 weeks of age (Balb/c-nu/nu) were obtained from Clea Japan, Inc. Human lung cancer cells LX-1 were obtained from the Japanese Foundation for Cancer Research Institute.
The synthesis of the control compound is described in JP-A No. 10-245390, Example 14.
The cancer cells were transplanted subcutaneously to nude mice so that solid cancer can be maintained. The solid cancer was sliced into 3 mm cubic blocks in physiological saline under ice cooling. One of the blocks was transplanted subcutaneously to a nude mouse to be used in experiment (Day 1). The cancer cells were grown subcutaneously in the mouse to form a tumor mass. The size of the mass was measured with a lapse of time, and when the volume reached 0.2 cm^3 or more (approximation by volume=major axis×minor axis^2÷2), administration of the drug was started. The drug was dissolved in 5% glucose solution and administered intravenously at the tail successively twice a week for 2 weeks (total 4 times). Two weeks after the administration, the percentage (T/C%) of the tumor volume (T) was calculated from the tumor volume (C) in the control group and that (T) in the test group as a tumor volume ratio.

| IC50 [1] | Structure (SMILES) | Anti-tumor activity against human lung cancer cells compared with the control compound ([2]; comparison from Table 2) | Ratio of tumor volume Treated/Control (%) ([2]; i.v. twice a week for 2 weeks, total dose 1200 mg/m^2, two weeks after the administration) |
| --- | --- | --- | --- |
| 0.95 nM | O=C1c2c(c3c4ccc(O)cc4n(C4OC(CO)C(O)C(O)C4O)c3c3[nH]c4cc(O)ccc4c23)C(=O)N1NCc1cccnc1 (stereo not shown) [Example 3] |  |  |
| 4.1 nM | O=C1c2c(c3c4ccc(O)cc4n(C4OC(CO)C(O)C(O)C4O)c3c3[nH]c4cc(O)ccc4c23)C(=O)N1NCc1cccs1 (stereo not shown) [Example 8] |  |  |
| 0.71 nM | O=C1c2c(c3c4ccc(O)cc4n(C4OC(CO)C(O)C(O)C4O)c3c3[nH]c4cc(O)ccc4c23)C(=O)N1NCc1ccncc1 (stereo not shown) [Example 1] | markedly a stronger anti-tumor activity | 1% (1200 mg/m^2) |
| 1.4 nM | O=C1c2c(c3c4ccc(O)cc4n(C4OC(CO)C(O)C(O)C4O)c3c3[nH]c4cc(O)ccc4c23)C(=O)N1NCc1ccccn1 (stereo not shown) [Example 2] |  |  |
| 2.7 nM | O=C1c2c(c3c4ccc(O)cc4n(C4OC(CO)C(O)C(O)C4O)c3c3[nH]c4cc(O)ccc4c23)C(=O)N1NCc1ccsc1 (stereo not shown) [Example 7] |  |  |

The remaining lines, values behind:

| Structure (SMILES) | IC50 [1] | Anti-tumor activity against human lung cancer cells compared with the control compound ([2]; comparison from Table 2) | Ratio of tumor volume Treated/Control (%) ([2]; i.v. twice a week for 2 weeks, total dose 1200 mg/m^2, two weeks after the administration) |
| --- | --- | --- | --- |
| O=C1c2c(c3c4ccc(O)cc4n(C4OC(CO)C(O)C(O)C4O)c3c3[nH]c4cc(O)ccc4c23)C(=O)N1NCc1ccco1 (stereo not shown) [Example 6] | 5 nM |  |  |
| O=C1c2c(c3c4ccc(O)cc4n(C4OC(CO)C(O)C(O)C4O)c3c3[nH]c4cc(O)ccc4c23)C(=O)N1NCCCc1cccnc1 (stereo not shown) [Example 4] | 6.3 nM |  |  |
| O=C1c2c(c3c4ccc(O)cc4n(C4OC(CO)C(O)C(O)C4O)c3c3[nH]c4cc(O)ccc4c23)C(=O)N1NCc1ccoc1 (stereo not shown) [Example 5] | 2.8 nM |  |  |

Reference: patent publication US20080113927A1, “Indolopyrrolocarbazole derivatives and anti-tumor agent” (priority 2003, published 2008)
